Experimental data: the Kinase Knowledgebase extract (Sharma et al. 2016)

Molecular target: ROCK1;ROCK2 (human) (UniProt O75116)
Test: Inhibition of ROCK1/ROCK2 Kinase Activity

Sequence of ROCK1;ROCK2 (human) (O75116 whole entry, looked up): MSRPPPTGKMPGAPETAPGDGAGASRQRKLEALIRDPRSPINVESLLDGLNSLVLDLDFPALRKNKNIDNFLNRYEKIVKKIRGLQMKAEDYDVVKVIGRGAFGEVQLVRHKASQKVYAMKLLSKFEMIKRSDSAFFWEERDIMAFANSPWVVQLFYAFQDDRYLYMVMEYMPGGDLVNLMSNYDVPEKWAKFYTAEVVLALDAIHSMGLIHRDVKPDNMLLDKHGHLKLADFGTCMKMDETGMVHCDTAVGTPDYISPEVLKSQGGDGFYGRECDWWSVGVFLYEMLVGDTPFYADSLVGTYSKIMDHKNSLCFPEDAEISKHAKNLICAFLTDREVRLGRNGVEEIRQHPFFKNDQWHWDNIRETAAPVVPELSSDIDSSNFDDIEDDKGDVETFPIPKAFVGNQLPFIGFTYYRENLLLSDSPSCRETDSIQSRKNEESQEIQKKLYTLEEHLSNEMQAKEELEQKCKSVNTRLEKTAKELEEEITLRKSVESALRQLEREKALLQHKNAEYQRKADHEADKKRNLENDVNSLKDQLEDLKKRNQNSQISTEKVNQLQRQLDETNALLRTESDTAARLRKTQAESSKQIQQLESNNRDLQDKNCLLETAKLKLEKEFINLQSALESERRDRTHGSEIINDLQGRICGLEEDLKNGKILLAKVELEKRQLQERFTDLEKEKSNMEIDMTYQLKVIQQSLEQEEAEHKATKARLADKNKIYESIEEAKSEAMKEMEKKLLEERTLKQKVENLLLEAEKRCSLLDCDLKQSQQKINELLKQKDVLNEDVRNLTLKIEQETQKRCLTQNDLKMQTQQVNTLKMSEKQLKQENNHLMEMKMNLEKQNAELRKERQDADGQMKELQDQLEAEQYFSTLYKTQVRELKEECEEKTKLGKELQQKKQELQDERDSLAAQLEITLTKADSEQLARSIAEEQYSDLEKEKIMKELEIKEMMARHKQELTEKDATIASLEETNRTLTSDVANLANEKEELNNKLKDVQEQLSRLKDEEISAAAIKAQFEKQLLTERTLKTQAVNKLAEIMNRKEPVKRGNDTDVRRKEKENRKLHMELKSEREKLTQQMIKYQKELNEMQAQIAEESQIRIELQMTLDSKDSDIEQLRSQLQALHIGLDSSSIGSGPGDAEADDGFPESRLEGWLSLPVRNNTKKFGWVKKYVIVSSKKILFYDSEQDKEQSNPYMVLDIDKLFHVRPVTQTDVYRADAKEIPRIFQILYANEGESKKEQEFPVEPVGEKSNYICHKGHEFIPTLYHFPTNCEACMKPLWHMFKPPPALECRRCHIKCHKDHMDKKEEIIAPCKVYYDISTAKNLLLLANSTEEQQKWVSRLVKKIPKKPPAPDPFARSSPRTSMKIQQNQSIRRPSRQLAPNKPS

SMILES	IC50 [nM]
CC(N)c1ccc(C(=O)Nc2ccncc2)cc1OCCCN (stereo unspecified)	500 to 5000
CC(N)c1ccc(C(=O)Nc2ccncc2)cc1O (stereo unspecified)	500 to 5000
CC(N)c1ccc(C(=O)Nc2ccncc2)cc1NCc1ccco1 (stereo unspecified)	50 to 500
CC(N)c1ccc(C(=O)Nc2ccncc2)cc1-c1ccoc1 (stereo unspecified)	50 to 500
CC(N)c1ccc(C(=O)Nc2ccncc2)cc1N (stereo unspecified)	500 to 5000
CC(N)c1ccc(C(=O)Nc2ccncc2)cc1OCCCO (stereo unspecified)	500 to 5000
CC(N)c1ccc(C(=O)Nc2ccncc2)cc1OCCN (stereo unspecified)	500 to 5000
CC(N)c1ccc(C(=O)Nc2ccncc2)cc1OCCO (stereo unspecified)	500 to 5000
CC(N)c1ccc(C(=O)Nc2ccncc2)cc1NC(=O)c1cccc(Cl)c1 (stereo unspecified)	50 to 500
CC(N)c1ccc(C(=O)Nc2ccncc2)cc1NC(=S)Nc1ccccc1 (stereo unspecified)	50 to 500
COc1ccc(-c2cc(C(=O)Nc3ccncc3)ccc2C(C)N)cc1 (stereo unspecified)	50 to 500

The next lines start with the values.

IC50 [nM]	SMILES
50 to 500	CC(N)c1ccc(C(=O)Nc2ccncc2)cc1NC(=O)c1ccc(Cl)cc1 (stereo unspecified)
50 to 500	CC(N)c1ccc(C(=O)Nc2ccncc2)cc1NC(=O)c1ccco1 (stereo unspecified)
50 to 500	CC(N)c1ccc(C(=O)Nc2ccncc2)cc1[N+](=O)[O-] (stereo unspecified)
50 to 500	CC(N)c1ccc(C(=O)Nc2ccncc2)cc1OCc1ccccc1 (stereo unspecified)
< 50	CC(N)c1ccc(C(=O)Nc2ccncc2)cc1-c1cccs1 (stereo unspecified)
< 50	CC(N)c1ccc(C(=O)Nc2ccncc2)cc1-c1ccc2ccccc2c1 (stereo unspecified)
< 50	CC(N)c1ccc(C(=O)Nc2ccncc2)cc1-c1ccc(Cl)cc1 (stereo unspecified)
50 to 500	CC(N)c1ccc(C(=O)Nc2ccncc2)cc1NC(=O)c1ccccc1 (stereo unspecified)
50 to 500	CC(N)c1ccc(C(=O)Nc2ccncc2)cc1NC(=O)Nc1ccccc1 (stereo unspecified)
50 to 500	C[C@H](N)c1ccc(C(=O)Nc2ccncc2)cc1-c1cccs1
< 50	COc1ccc(C(=O)Nc2cc(C(=O)Nc3ccncc3)ccc2C(C)N)cc1 (stereo unspecified)
< 50	C[C@@H](N)c1ccc(C(=O)Nc2ccncc2)cc1-c1cccs1
< 50	CC(N)c1ccc(C(=O)Nc2ccncc2)cc1-c1cccc(Cl)c1 (stereo unspecified)
< 50	CC(N)c1ccc(C(=O)Nc2ccncc2)cc1-c1ccc(F)cc1 (stereo unspecified)
< 50	COc1cccc(C(=O)Nc2cc(C(=O)Nc3ccncc3)ccc2C(C)N)c1 (stereo unspecified)
